Data on one compound can be found in PMC3969268 (Journal of medicinal chemistry, 2012).

Assay [1] deals with EfFtsZ (Enterococcus faecalis, UniProt O08439). Nature of the assay: FtsZ polymerization light-scattering. It is filed as biochemical, E. faecalis. The settings on record: 40 μg/mL compound or comparator drug.
The subject of assay [2] is S. aureus 8325-4 (MSSA). The experiment in a line: MIC broth microdilution, S. aureus 8325-4. It is filed as cell-based. The settings on record: Staphylococcus aureus, MSSA, 24 h.
The test system of assay [3] is S. aureus ATCC 49951 (MSSA). The experiment in a line: MIC broth microdilution, S. aureus ATCC 49951. The class given is cell-based. To be noted: Staphylococcus aureus, ATCC49951|MSSA, 24 h.
Assay [4] relates to S. aureus 8325-4. The experiment in a line: Minimum bactericidal concentration. It is filed as cell-based.

Sequence of EfFtsZ (O08439 whole entry): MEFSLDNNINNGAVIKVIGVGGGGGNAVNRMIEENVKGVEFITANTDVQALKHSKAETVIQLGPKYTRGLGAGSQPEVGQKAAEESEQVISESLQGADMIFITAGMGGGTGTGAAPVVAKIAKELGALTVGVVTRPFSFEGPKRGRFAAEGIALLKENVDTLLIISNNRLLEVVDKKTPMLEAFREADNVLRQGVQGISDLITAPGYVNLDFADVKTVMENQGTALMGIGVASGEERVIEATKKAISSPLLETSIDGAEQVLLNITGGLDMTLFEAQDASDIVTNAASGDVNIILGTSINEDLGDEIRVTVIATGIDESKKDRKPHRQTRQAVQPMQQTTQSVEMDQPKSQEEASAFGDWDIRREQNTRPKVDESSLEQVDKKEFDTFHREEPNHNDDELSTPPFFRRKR

For `CN[C@H](CC(C)C)C(=O)N[C@H]1C(=O)N[C@@H](CC(N)=O)C(=O)N[C@H]2C(=O)N[C@H]3C(=O)N[C@H](C(=O)N[C@H](C(=O)O)c4cc(O)cc(O)c4-c4cc3ccc4O)[C@H](O)c3ccc(c(Cl)c3)Oc3cc2cc(c3O[C@@H]2O[C@H](CO)[C@@H](O)[C@H](O)[C@H]2O[C@H]2C[C@](C)(N)[C@H](O)[C@H](C)O2)Oc2ccc(cc2Cl)[C@H]1O.Cl` [vancomycin], in assay [1], the “extent of stimulation of FtsZ polymerization (A340)” value is recorded as “negligible impact”. Moreover, the MIC in assay [2] and in assay [3] was 0.5 µg/mL throughout. In assay [4], this compound had an MBC/MIC of 2.
